Experimental data as given in article PMC7381729, “A new class of PentixaFor- and PentixaTher-based theranostic agents with enhanced CXCR4-targeting efficiency” (Theranostics, 2020).
Read-outs that look alike come from different tables or passages of the source. Where a SMILES comes first, the peptide text is derived from it. Side-chain parts run from the residue outwards. [ ]: non-standard residue; d: D form. The star is where a group is joined. DOTA = O=C(O)CN1CCN(CC(=O)O)CCN(CC(=O)*)CCN(CC(=O)O)CC1; 2Nal = N[C@@H](Cc1ccc2ccccc2c1)C(=O)O; dNMeOrn = CN[C@H](CCCN)C(=O)O; 4Abz = Nc1ccc(C(=O)O)cc1

Columns and labels:
[1] = Biodistribution in Daudi xenograft bearing mice; type: in vivo, mouse; settings: female, CB-17 SCID, mouse, iv, total radioactivity, 1h p.i., means ± SD
Summary of the method: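 Female CB-17 SCID mice with Daudi xenografts (n=4-5) received 5-10 MBq (0.08-0.11 nmol) ^68Ga- or ^177Lu-labelled ligand i.v.; blocking by coinjected 50 µg AMD3100. Organs counted by γ-counter at 1, 6 and 48 h p.i.; %ID/g (mean ± SD).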

[2] = Small animal PET imaging in Daudi xenograft bearing mice; type: in vivo; settings: CB17 SCID, mouse, iv, total radioactivity, 90 min p.i., dynamic PET, ROI analysis, n=1 per compound
Protocol: Small aminal PET imaging studies were performed using a Siemens Inveon PET scanner. Animals were anesthetized with isoflurane and injected via the tail vein with 10 to 15 MBq (0.1 nmol) of the respective tracer. Dynamic imaging (n=1 per compound) was performed after on-bed injection for 1.5 h, and static images (n=1 per compound) were acquired at 1 h p.i. with an acquisition time of 15 min. Data analysis was performed using the Inveon Research Workplace software. Images were reconstructed using a 3D ordered-subsets expectation maximum (OSEM3D) algorithm without scanner and attenuation correction. Time-activity curves (Figure 4) were obtained by generating isocontour regions of interest (ROI) for the tumor and the heart content (as a surrogate for blood activity), as well as by defining two spherical ROIs (each 23.4 mm^3) in the thigh area (muscle) and areas of homogenous tracer uptake in the liver, followed by plotting of average activity ± SD per volume in these ROIs over time.  Figure 4 Results from small animal PET imaging using [^68Ga]PentixaFor (top row), [^68Ga]DOTA-r-a-ABA-CPCR4 (middle row) and [^68Ga]DOTA-r-a-ABA-iodoCPCR4 (bottom row) in Daudi xenograft bearing CB17 SCID mice. Images on the left (MIP) were obtained by static imaging (1h p.i., n=1), the time activity curves (TAC) on the right were acquired by dynamic PET imaging (0-90 min p.i., n=1).

Molecule `C[C@@H](NC(=O)[C@@H](CCCNC(=N)N)NC(=O)CN1CCN(CC(=O)O)CCN(CC(=O)O)CCN(CC(=O)O)CC1)C(=O)Nc1ccc(C(=O)NCCC[C@@H]2C(=O)N[C@@H](CCCNC(=N)N)C(=O)N[C@@H](Cc3ccc4ccccc4c3)C(=O)NCC(=O)N[C@H](Cc3ccc(O)cc3)C(=O)N2C)cc1` [[^68Ga]DOTA-r-a-ABA-CPCR4, metal not drawn] (cyclo([2Nal]G[dY][dNMeOrn]([4Abz-dA-dR-DOTA])R)) has a tissue uptake at 1 h ([1]; adrenals, tracer only, i.v., γ-counter, n=4-5 (68Ga: n=4), read-out: Biodistribution adrenals) of 1.9 ± 1.14 %ID/g, a tissue uptake at 1 h ([1]; adrenals, with AMD3100, 50 µg per animal, coinjected (CXCR4 competition), coinjection of 50 µg AMD3100/animal, n=3, read-out: Biodistribution adrenals, competition with AMD3100) of 1.02 ± 0.27 %ID/g and a tissue uptake at 1 h ([1]; blood, with AMD3100, 50 µg per animal, coinjected (CXCR4 competition), coinjection of 50 µg AMD3100/animal, n=3, read-out: Biodistribution blood, competition with AMD3100) of 2.98 ± 0.57 %ID/g. For the same molecule, the tissue uptake at 1 h ([1]; colon, tracer only, i.v., γ-counter, n=4-5 (68Ga: n=4), read-out: Biodistribution colon) was 0.67 ± 0.13 %ID/g, the tissue uptake at 1 h ([1]; colon, with AMD3100, 50 µg per animal, coinjected (CXCR4 competition), coinjection of 50 µg AMD3100/animal, n=3, read-out: Biodistribution colon, competition with AMD3100) was 0.47 ± 0.09 %ID/g and the tissue uptake at 1 h ([1]; femur, tracer only, i.v., γ-counter, n=4-5 (68Ga: n=4), read-out: Biodistribution femur) was 1.27 ± 0.32 %ID/g. The tissue uptake at 1 h ([1]; femur, with AMD3100, 50 µg per animal, coinjected (CXCR4 competition), coinjection of 50 µg AMD3100/animal, n=3, read-out: Biodistribution femur, competition with AMD3100) was 0.74 ± 0.11 %ID/g, the tissue uptake at 1 h ([1]; heart, tracer only, i.v., γ-counter, n=4-5 (68Ga: n=4), read-out: Biodistribution heart) was 1.51 ± 0.25 %ID/g and the tissue uptake at 1 h ([1]; heart, with AMD3100, 50 µg per animal, coinjected (CXCR4 competition), coinjection of 50 µg AMD3100/animal, n=3, read-out: Biodistribution heart, competition with AMD3100) was 1.37 ± 0.33 %ID/g. The tissue uptake at 1 h ([1]; kidney, tracer only, i.v., γ-counter, n=4-5 (68Ga: n=4), read-out: Biodistribution kidney) was 11.5 ± 3.58 %ID/g, the tissue uptake at 1 h ([1]; kidney, with AMD3100, 50 µg per animal, coinjected (CXCR4 competition), coinjection of 50 µg AMD3100/animal, n=3, read-out: Biodistribution kidney, competition with AMD3100) was 7.16 ± 1.62 %ID/g and the tissue uptake at 1 h ([1]; liver, with AMD3100, 50 µg per animal, coinjected (CXCR4 competition), coinjection of 50 µg AMD3100/animal, n=3, read-out: Biodistribution liver, competition with AMD3100) was 4.62 ± 0.56 %ID/g. The tissue uptake at 1 h ([1]; lung, tracer only, i.v., γ-counter, n=4-5 (68Ga: n=4), read-out: Biodistribution lung) was 3.15 ± 0.5 %ID/g, the tissue uptake at 1 h ([1]; lung, with AMD3100, 50 µg per animal, coinjected (CXCR4 competition), coinjection of 50 µg AMD3100/animal, n=3, read-out: Biodistribution lung, competition with AMD3100) was 3.12 ± 0.57 %ID/g and the tissue uptake at 1 h ([1]; muscle, tracer only, i.v., γ-counter, n=4-5 (68Ga: n=4), read-out: Biodistribution muscle) was 0.45 ± 0.05 %ID/g. The tissue uptake at 1 h ([1]; muscle, with AMD3100, 50 µg per animal, coinjected (CXCR4 competition), coinjection of 50 µg AMD3100/animal, n=3, read-out: Biodistribution muscle, competition with AMD3100) was 0.4 ± 0.11 %ID/g, the tissue uptake at 1 h ([1]; pancreas, tracer only, i.v., γ-counter, n=4-5 (68Ga: n=4), read-out: Biodistribution pancreas) was 0.68 ± 0.01 %ID/g and the tissue uptake at 1 h ([1]; pancreas, with AMD3100, 50 µg per animal, coinjected (CXCR4 competition), coinjection of 50 µg AMD3100/animal, n=3, read-out: Biodistribution pancreas, competition with AMD3100) was 0.69 ± 0.07 %ID/g. It also gave a tissue uptake at 1 h ([1]; small intestine, tracer only, i.v., γ-counter, n=4-5 (68Ga: n=4), read-out: Biodistribution small intestine) of 0.94 ± 0.13 %ID/g, a tissue uptake at 1 h ([1]; small intestine, with AMD3100, 50 µg per animal, coinjected (CXCR4 competition), coinjection of 50 µg AMD3100/animal, n=3, read-out: Biodistribution small intestine, competition with AMD3100) of 0.94 ± 0.31 %ID/g and a tissue uptake at 1 h ([1]; spleen, tracer only, i.v., γ-counter, n=4-5 (68Ga: n=4), read-out: Biodistribution spleen) of 2.01 ± 0.19 %ID/g. The tissue uptake at 1 h ([1]; spleen, with AMD3100, 50 µg per animal, coinjected (CXCR4 competition), coinjection of 50 µg AMD3100/animal, n=3, read-out: Biodistribution spleen, competition with AMD3100) was 2.38 ± 0.23 %ID/g, the tissue uptake at 1 h ([1]; stomach, tracer only, i.v., γ-counter, n=4-5 (68Ga: n=4), read-out: Biodistribution stomach) was 1.2 ± 0.1 %ID/g and the tissue uptake at 1 h ([1]; stomach, with AMD3100, 50 µg per animal, coinjected (CXCR4 competition), coinjection of 50 µg AMD3100/animal, n=3, read-out: Biodistribution stomach, competition with AMD3100) was 0.97 ± 0.32 %ID/g. The tissue uptake at 1 h ([1]; tumor (Daudi xenograft), tracer only, i.v., γ-counter, n=4-5 (68Ga: n=4), read-out: Biodistribution tumor (Daudi xenograft)) was 11.7 ± 1.31 %ID/g, the tissue uptake at 1 h ([1]; tumor (Daudi xenograft), with AMD3100, 50 µg per animal, coinjected (CXCR4 competition), coinjection of 50 µg AMD3100/animal, n=3, read-out: Biodistribution tumor, competition with AMD3100) was 2.52 ± 0.36 %ID/g and the tissue uptake per volume at 1.5 h ([2]; kidney, read-out: Kidney uptake in PET) was 9.4 ± 0.2 %ID/mL. The tissue uptake per volume at 1.5 h ([2]; liver, average ± SD per volume in ROI, read-out: Liver uptake in PET) was 6 ± 0.2 %ID/mL and the tissue uptake per volume at 1.5 h ([2]; tumor (Daudi xenograft), Daudi xenograft, read-out: Tumor accumulation in PET) was 12 ± 0.7 %ID/mL.
